{
  "source": "patent US8372886B2",
  "about": "“Treatment of renal disorders, diabetic nephropathy and dyslipidemias” (Kiacta Sarl, priority 2005, dated 2013)",
  "tested_on": "Zucker Diabetic Fatty rat (ZDF)",
  "assay": "In vivo preventive study of renal function in the Zucker Diabetic Fatty rat model of diabetic nephropathy",
  "text": "The compound 1,3 Propanedisulfonic Acid Disodium Salt (PDS) was selected for a preventive study of renal function in the Zucker rat (ZDF) mode.\nA leading study model for DN is the inbred Zucker Diabetic Fatty rat (ZDF). Given a diabetogenic diet, the ZDF rat will closely mimic human adult onset diabetes (Type 2) and related complications including glomerulosclerosis and renal damage earlier than when fed a normal diet (i.e. 14-18 weeks of age). In addition, obesity, mild hypertension, hypertriglyceridemia, hypercholesterolemia, fasting hyperglycemia, impaired glucose tolerance and hyperinsulinemia, are all major phenotypes featured in the ZDF rat.\nThis pre-clinical investigation evaluates the role and efficacy of 1,3 Propanedisulfonic Acid Disodium Salt (PDS) (Eprodisate Disodium) as a preventive treatment for DN and related pathophysiology in the ZDF rat model. The primary measured outcome is the attenuation/reversal of creatinine clearance deterioration and of proteinuria. The secondary measured outcome is the impact on the metabolic status in this model.\nThirty-two, 6 week-old male ZDF rats (Charles River, St. Constant, Canada) were randomized in 2 groups, Treated (PDS; in 1% sucrose drinking solution) and Control (1% sucrose drinking solution), and studied for a period of 8 weeks. […] All rats were fed a high sucrose/high fat diabetogenic diet (Harlan™ TD95217). Body weight, food and drinking solution consumption were measured on a daily basis. Twelve rats from each group were individually housed in metabolic cages for a period of 24 hours once a week. During week 2, 3, 4 and 5, rats placed in metabolic cages received drinking solution but were placed in fasting condition, whereas during weeks 1, […], 6, 7, and 8, rats were given ad libitum access to food and drinking solution. At the end of each metabolic cage session, urine output was measured, and blood and urine samples were collected in order to quantify serum and/or urine levels of PDS, creatinine, protein, uric acid, triglycerides, glucose, and electrolytes. These variables were used to calculate creatinine clearance (CCr) and proteinuria, and to evaluate general metabolic and renal health status.\nResults for each time point are represented as mean±SE. Trend statistics are calculated by repeated measures ANOVA, with p<0.02 considered statistically significant.",
  "key": {"[1]": {"conditions": "preliminary evaluation, rats sacrificed at about 9 weeks of treatment, not shown"}},
  "data": [
    {"compound": "O=S(=O)([O-])CCCS(=O)(=O)[O-].[Na+].[Na+]", "note": "[PDS, 1,3 Propanedisulfonic Acid Disodium Salt]", "values": [
      {"measurement": "uric acid serum levels", "setting": "ZDF rats, summary statement of the study", "value": "reduction of uric acid serum levels"},
      {"measurement": "tolerability", "setting": "male ZDF rats, PDS in 1% sucrose drinking solution, adjusted higher dose, satient condition", "value": "well tolerated"},
      {"measurement": "serum triglyceride levels versus Control animals", "setting": "male ZDF rats, satient condition, after 8 weeks of treatment, p=0.0067, FIGS. 3A and 3B", "value": "reduced serum triglyceride levels"},
      {"measurement": "degree of decline of creatinine clearance normalized over body weight (CCr/BW) versus Control animals", "setting": "male ZDF rats, satient condition, after 8 weeks of treatment, p=0.012, FIGS. 2A and 2B", "value": "significantly lowered the degree of decline"},
      {"measurement": "uric acid clearance, effect of treatment over the study", "setting": "male ZDF rats, satient condition, over 8 weeks, FIG. 4A", "value": "trend in the positive effect"},
      {"measurement": "uric acid clearance compared to the control group at week 8", "setting": "male ZDF rats, satient condition, week 8, FIG. 4B", "value": "significant difference compared to the control group"},
      {"measurement": "kidney mass versus control rats", "setting": "[1]", "value": "greater kidney mass than control rats"},
      {"measurement": "mass of the heart ventricles versus control rats", "setting": "[1]", "value": "slightly lower ventricular mass"}
    ]}
  ]
}
